# A melting point compilation (Tetko et al.; mined from patent text by program, amines drawn as free bases though some values may be those of a salt)
row,Structure (SMILES),melting point [°C]
1,CC[C@@]12C[C@@](C)(O)[C@](O)(c3ccccc3)C[C@H]1CCc1cc(OCc3nnn[nH]3)ccc12,108 to 110
2,CCCCN1C=CC(N2CCC(F)(c3ccccc3)C(Cl)C2=O)=CC1 (centres undefined),137
3,O=c1[nH]c2cc(F)ccc2c(=O)n1-c1ccccc1,304 to 306
4,CNC(=S)C1(c2ccc3ccccc3n2)CCCS1 (centres undefined),124
5,O=C(NCCCCC1CCSS1)N1CCCCC1 (centres undefined),90 to 91
6,COc1c(Br)cc([N+](=O)[O-])cc1-c1c2ccccc2c(Br)c2sc(C)c(C)c12,204 to 205
7,CC(C)OC(=O)c1ccc(OCc2ccccc2)cc1,62 to 63
8,Cc1ccc(S(=O)(=O)OC[C@H]2CC[C@H](C#N)CC2)cc1,84 to 85
9,N#Cc1cc(C(=O)O)ccc1Cl,180
10,CS(=O)(=O)Nc1cc2occ(NC(N)=O)c(=O)c2cc1Oc1ccccc1,> 250
11,O=c1[nH]c(-c2ccc(F)cc2)c(CCCl)s1,138
12,COC(=O)Cn1c(=O)c(=O)[nH]c2cc(N)c(Cl)cc21,> 260
13,NC(=O)Cc1ccc2c(c1)sc1ccc(Cl)cc12,92 to 99
14,O[C@H]1CC[C@H](c2ccc(Br)cc2)CC1,110 to 111
15,O=c1nc(NCCCOc2cccc(CN3CCCCC3)c2)c2ccccc2[nH]1,219 to 221
16,Oc1ccc2nscc2c1,215 to 216
17,CCOCc1cnc2c(NC(=O)c3c(Cl)cccc3Cl)cccc2c1Cl,121 to 123
18,COc1cc2c(cc1Nc1ncc(Cl)c(Nc3cc(C(N)=O)ccc3OC)n1)CCN(CC(=O)N(C)C)CC2,163 to 174
19,CC(C)(C)c1cc(CCc2ccccc2NC(=O)N2CCN(c3ccccc3)CC2)cc(C(C)(C)C)c1O,155 to 156
20,CCCN(C=Nc1ccc2nnc(-c3ncc([N+](=O)[O-])n3C)n2n1)CCC,155 to 157
21,CC(C)(O)c1ccc(CNC(=O)c2cccnc2Oc2ccc3nsnc3c2)c(F)c1,124 to 125
22,CC1(C)CN(C2CC3(C)C(CCC4C3CCC3(C)C(C(=O)CO)CCC43)CC2O)CCO1 (centres undefined),184 to 186
23,CCC(COC)NC(=O)C(Cc1ccc(OCc2ccccc2)cc1)NC(=O)C(CC(C)C)N(C)Cc1ccc(C(C)(C)C)cc1 (centres undefined),118 to 120
24,O=C(O)CNC(COCc1cc(C(F)(F)F)cc(C(F)(F)F)c1)C(c1ccccc1)c1ccccc1 (centres undefined),116 to 119
25,CS(=O)(=O)Cc1nnc(-c2ccc3occ(-c4cccc(OC(F)(F)F)c4)c3c2)o1,162 to 163

row,Structure (SMILES),melting point [°C]
1,O=C(NC[C@H]1CN(c2ccc(N3CCS(=O)(=O)CC3)c(F)c2)C(=O)O1)C(F)F,177 to 178
2,Nc1nc(=O)n(C2OC(CO)CC2O)cc1F (centres undefined),137 to 138
3,CC(C)Oc1ccc2nc(CO)n(C)c2n1,125 to 127
4,COc1cccc(C2=CC(=O)N(C)C2=O)c1,138 to 146
5,NCCOc1ncc(Cl)c(N)c1Cl,115 to 116
6,CCOC(=O)C1=C(C)NC(=S)N(C(=O)OCC)C1c1cccc2nonc12 (centres undefined),144 to 146
7,O=C1C[C@@H](O)C[C@H](/C=C/c2c(Cl)cc(Cl)cc2Oc2ccccc2)O1 (relative stereo),124 to 126
8,COc1c2ccccc2c(-c2c(-c3c4ccccc4c(OC)c4ccccc34)c2=O)c2ccccc12,265 to 270
9,CCOC(=O)N1CCC(=C2c3ccccc3CCn3c(C(=O)O)cnc32)CC1,182
10,CCn1c(=O)c2c(nc(/C=C/c3cc(OC)c(OC(C)=O)c(OC)c3)n2C)n(CC)c1=O,248 to 249
11,CCOC(=O)CCc1c(C)nc(CC)n(Cc2ccc(-c3ccccc3-c3nnn[nH]3)cc2)c1=O,76 to 80
12,CCCCCN(CC(=O)OC(C)(C)C)C(=O)C(CCC(=O)OC)CS(=O)(=O)c1ccc2ccccc2c1 (centres undefined),85 to 87
13,CCOC(=O)CNC(=O)[C@@H]1CS[C@H](c2ccccc2O)N1C(=O)CCSC(=O)c1ccccc1,134 to 135
14,O=C(O)c1cn(-c2ccc(F)cc2F)c2c(F)c(N3Cc4cccc(F)c4C3)c(F)cc2c1=O,> 300
15,O=C(O)COC(c1cccc(-c2nnc(Nc3ccc(Cl)c(Cl)c3)s2)c1)c1cccc(C(F)(F)F)c1 (centres undefined),89 to 91
16,CCCCCC(C#Cc1ccc(C(=O)O)cc1)c1ccc2c(c1)C(C)(C)CCC2(C)C (racemic),115 to 116
17,CC1C(=O)N(C)C(=O)N(C)C1=O,83 to 85
18,ClCc1cc(-c2ccccc2)nc2ccccc12,79
19,O=[N+]([O-])c1ccc(Oc2cncc(Cl)n2)cc1,125 to 127
20,O=C(O)c1ccc(N2CCOCC2)cc1C(=O)O,178 to 180
21,O=C1OC(O)c2c1cccc2[N+](=O)[O-] (centres undefined),153 to 156
22,COc1c(NC(=O)c2ccc(C)c(-n3cc(C(=O)NCc4cccnc4)cn3)c2)cc(C(C)(C)C)cc1NS(C)(=O)=O,127 to 133
23,Cc1nc(-c2cccc(Nc3ccc(I)cc3N)c2)cs1,151 to 152
24,CCCS(=O)(=O)c1ccc2c(c1)C(=O)C(Br)C2 (centres undefined),87 to 89
25,CCc1nc2c(cnn2CC)c(NC2CCOCC2)c1CNC(=O)c1cccc(C(=O)NCc2ccc(OC)c(-c3cccc(CN4CCNCC4)c3)c2)c1,138 to 140

row,Structure (SMILES),melting point [°C]
1,Cn1nc(C(=O)O)cc1-c1ccccc1,149 to 150
2,O=C(c1ccccc1NCc1ccncc1)[NH+]([O-])c1cc2ccccc2cn1 (centres undefined),212
3,CCC(CC)(NCCCn1cnc(CCNC(=O)c2ccc(C#N)cc2)c1)c1ccccc1,107 to 109
4,O=c1ccc2c(O)cccc2o1,224 to 225
5,CC(Nc1ncnc2c1ncn2C1OC(CO)C(O)C1O)c1ccccc1 (centres undefined),165 to 167
6,O=C1Nc2cc(F)ccc2C1c1ncnc2c1cnn2C1CCCCC1 (centres undefined),277 to 280
7,Cc1ccc(N2CCN(c3c(C)c(C)c4c(c3C)CC(C)(C)O4)CC2)cc1,152 to 155
8,O=C(CN1C(=O)C(NC(=O)Nc2ccc(Cl)cc2)N=C(c2ccccc2)c2ccccc21)NCc1ccccc1 (centres undefined),260 to 262
9,CCCCc1nc2ccc(N(C)C(=O)NC)cc2n1Cc1ccc(-c2ccccc2C(=O)O)cc1,163 to 165
10,C(#Cc1cccc2ccccc12)c1ccccc1,51 to 53
11,O=[N+]([O-])c1oc2ccc(CCO)cc2c1-c1ccccc1,169 to 173
12,COc1nc(C)c(C(C)=O)cc1NC(=O)N1CCN(c2cccc(C)c2C)CC1,173 to 174
13,O=C1C(=C2C=Cc3ccccc3C2)CCCC1=C1C=Cc2ccccc2C1,176
14,CCCCCCC(=N)NC(=S)Nc1ccccc1Cl,75 to 77
15,CCCCCCCCCCCCNC(=O)N(C)C[C@H](O)[C@@H](O)[C@H](O)[C@H](O)CO,117
16,C=C(C)COc1ccc(OC)cc1-c1nc2ccccc2[nH]1,144 to 148
17,CCOC(=O)/C=C/c1ccc(C=Cc2nc(-c3ccc4ccccc4c3)oc2C)cc1,186 to 187
18,CCCn1c(=O)n(-c2ccc3c(c2)OCO3)c2ncc(N)cc21,177 to 178
19,CCOC(=O)C(=CNC1CC1)C(=O)c1cc(F)c(F)cc1Cl,55 to 58
20,CC(=O)N[C@@H](C)COc1ccc2nc(-c3ccc(OCC4CC4)c(F)c3F)oc2c1F,168
21,CC(=O)Nc1ccc(C(=O)N2CCOCC2)cc1[N+](=O)[O-],128 to 132
22,CCCCC(OC(C)=O)c1ccccc1COc1cccc2cccnc12 (centres undefined),80 to 82
23,O=C(CCl)c1ccc2c(c1)Nc1ccccc1S2,190 to 191
24,O=C(O[C@@H]1[C@@H](Br)C[C@]2(O)C[C@H]1OC2=O)c1ccccc1,142 to 143
25,N#Cc1c(N2CCCCC2)cc(-c2ccc3ccc4cccc5ccc2c3c45)c2c1-c1ccccc1C2=O,220 to 222

row,Structure (SMILES),melting point [°C]
1,CC1CCCC(C)C1NSc1nc2ccccc2s1 (centres undefined),75 to 93
2,Cc1cc(OC(F)(F)C(F)F)ccc1N1C(=O)c2cccc(Cl)c2C1=O,121 to 122
3,COc1ccccc1C(OC)c1cccnn1 (centres undefined),110 to 111
4,COC(=O)c1ccc(C#Cc2cc(C#Cc3ccc(C(=O)OC)cc3)cc(C#Cc3ccc(C(=O)OC)cc3)c2)cc1,177
5,NC(CSSCCCN1C(=O)NCC1c1ccccc1)C(=O)O (centres undefined),172 to 178
6,Cc1ccccc1CC[C@H]([C@H](C)O)n1cnc(C(N)=O)c1,60 to 62
7,Cc1cc(-c2nnn(C)n2)cc(C)c1OCCCCc1cc2cccnc2[nH]1,147 to 150
8,Cc1ccc(-c2cnn(C)c2)cc1,107 to 108
9,Oc1ccc(C2=C(c3ccccc3)CCCc3cc(OC4CCCCO4)ccc32)cc1 (centres undefined),183 to 185
10,COc1ccc(-c2c(Cl)ncnc2NS(=O)(=O)c2ccc(OC)cc2)cc1,165 to 167
11,CC12CCC(=O)C=C1CCC1C2=CCC2(C)C(=C=C(Cl)S(=O)c3ccccc3)CCC12 (centres undefined),210 to 213
12,O=[N+]([O-])c1ccc(F)c2ccccc12,75 to 76
13,CC(C)N(CCC1(c2ccccc2)C(=O)NC(C)N2CCCCC21)C(C)C (centres undefined),142 to 145
14,CCOC(=O)[C@H](CCSC)NC(=O)C1(Br)SC=C(Br)C1Br (some centres undefined),80 to 82
15,NC(=O)c1ccc(Nc2nc(OCC3CCCCC3)c3nc[nH]c3n2)cc1,156 to 158
16,COCC1CC2CCC13CN(CC1CC1)CCC31c3cccc(O)c3OC21 (centres undefined),128 to 129
17,COc1cc(N)cc(C#N)c1,81 to 85
18,COC(=O)c1ccc(C(F)(F)F)cc1C#N,52
19,CCCOc1ncc(S(C)(=O)=O)cc1-c1nc2c(CC)nn(C[C@@H]3CCCN3C)c2c(=O)[nH]1,182 to 183
20,CC(C)(C)NCC(O)c1ccc(N)c(C#N)c1Cl (centres undefined),85 to 88
21,CO[C@H]1O[C@@H](C)[C@H]2[C@@H]1C[C@H]1CCCC[C@@H]1[C@H]2CS(=O)(=O)c1ccccc1,136 to 137
22,N#Cc1ccc(CCCN2C(=O)c3ccccc3C2=O)cc1,138 to 140
23,CCCCCCCCCCCCc1cn(C(C(=O)O)c2ccccc2)cn1 (centres undefined),110 to 118
24,CC(C)(C)c1ccc2oc(C(=O)CBr)cc2c1,100 to 102
